Results: US5620997A, “Isothiazolones” (Warner-Lambert Company, priority 1995, dated 1997)

System: HIV
Assay: CEM cell assay, anti-HIV activity (XTT, protection from viral cytopathic effects)
Type: cell-based
Details: Human immunodeficiency virus 1, CCRF-CEM; Effective concentration which protects cells from viral cytopathic effects
Source text: The test systems utilized to establish the cellular antiviral activity of the isothiazolones of Formula I are well recognized in the art and are routinely employed for such purpose. For example, the assay utilized to evaluate the compounds activity against the HIV virus is that employed by the U.S. National Cancer Institute as described by Weislow O. S., et al., J. Natl. Cancer Inst., 1989;81:577-586, incorporated herein by reference.
The procedure is designed to detect agents acting at any stage of the virus reproductive cycle. The assay basically involves the killing of T4 lymphocytes by HIV. Small amounts of HIV are added to cells, and at least two complete cycles of virus reproduction are necessary to obtain the required cell killing. Agents which interact with virions, cells, or virus gene-products to interfere with viral activities will protect cells from cytolysis. The system is automated in several features to accommodate large numbers of candidate agents, and is generally designed to detect anti-HIV activity. However, compounds which degenerate or are rapidly metabolized in the culture conditions may not show activity in this screen.
Yet another test system employed to determine antiviral activity is called the CEM cell assay.
T4 lymphocytes (CEM cell line) are exposed to HIV at a virus to cell ratio approximately 0.05, and plated along with noninfected control cells in 96-well microliter plates.
Candidate agent is dissolved in dimethyl sulfoxide (unless otherwise noted), then diluted 1:200 in cell culture medium. Further dilutions (half-log10) are prepared before adding to an equal volume of medium containing either infected or noninfected cells.
Cultures are incubated at 37° in a 5% carbon dioxide atmosphere for 6 or 7 days. The tetrazolium salt, XTT, is added to all wells, and cultures are incubated to allow formazan color development by viable cells J. National Cancer Institute, 1989;81:577-586. Individual wells are analyzed spectrophotometrically to quantitate formazan production, and in addition are viewed microscopically for detection of viable cells confirmation of protective activity.
Drug-tested virus-infected cells are compared with drug-treated noninfected cells and with other appropriate controls (untreated infected and untreated noninfected cells, drug-contain wells without cells, etc.) on the same plate. Data are reviewed in comparison with other tests done at the same time and a determination about activity is made.

NS(=O)(=O)c1ccc(-n2sc3ccccc3c2=O)cc1 [Example 1, 4-(3-Oxo-3h-benzo[d]isothiazol-2-yl)-benzenesulfonamide]
EC50: 5.1 µM
